Source: US12674139B2, “Serum-free medium not containing albumin and suited for culturing human hematopoietic stem cells, and albumin-free culturing method” (The University of Tokyo, priority 2019, dated 2026)
Non-standard residues stand in square brackets, D forms with d. No end group written: not given here. pY = N[C@@H](Cc1ccc(OP(=O)(O)O)cc1)C(=O)O

Experiments:
[1] = test system: human CD34+ cells; assay: Culture of human bone marrow or umbilical cord blood CD34+ cells in PVA medium, proliferation rate by cell count and flow cytometry; conditions: for ratio of number of cells at day 7 relative to first day of culture: TPO replaced with TPO receptor agonist; for proliferation rate of total cells and CD34+ cells relative to start of culture: neither SCF nor TPO, 20 μM PI3Ka, 0.1 μM TPOago or both
Description: The cells were dispensed to a 24-well plate at 0.2 to 1.0×10^5 cells per well, TPO was removed from a culture medium for human hematopoietic stem cells and replaced with any of the above-mentioned TPO receptor agonists (hereinafter, may be referred to as “TPOago”) to perform the experiment. The ratio of the number of cells at day 7 of culture relative to the first day of culture was obtained.
Subsequently, whether or not SCF and TPO can be replaced with PI3Ka and a TPO receptor agonist in the absence of albumin and in the presence of PVA was examined. In the following example, butyzamide was used as a TPO receptor agonist. […] Seven days later, the number of total cells was obtained, and the number of CD34+ cells was obtained by flow cytometry. Then, the proliferation rate compared with the start of culture was obtained.
Further, subsequently, a culture experiment of human hematopoietic stem cells was performed in a culture medium comprising neither SCF nor TPO to which 20 μM PI3Ka or 0.1 μM TPOago or both were added.
Further, subsequently, which cell population easily proliferated in a medium in which SCF and TPO were replaced with PI3Ka and TPOago was examined. CD34^+ cells isolated from given fresh umbilical cord blood using microbeads as described above were used in the culture experiment.
The cells were dispensed to a 24-well plate at 0.2×10^5 to 1.0×10^5 cells per well, and CD34^+ cells were cultured in the prepared media.

[2] = test system: human CD34+ cells; assay: Colony assay in MethoCult H4415 medium with Giemsa staining; type: cell-based; conditions: cells after 7 days culture; 20 μM PI3Ka + 0.1 μM butyzamide versus PI3Ka + TPO
Description: Subsequently, whether or not SCF and TPO can be replaced with PI3Ka and a TPO receptor agonist in the absence of albumin and in the presence of PVA was examined. In the following example, butyzamide was used as a TPO receptor agonist. Purchased human bone marrow CD34+ cells (distributor name, Lonza; product number 2C-101) or CD34+ cells isolated from given fresh umbilical cord blood using microbeads as described above were used in the culture experiment. […] Two weeks later, colonies were picked up, cytospin specimens were prepared, Giemsa staining was performed, and then the types of colonies were determined under a microscope. The number of GEmM colonies per 50 CD34+ cells was counted, and the percentage increase in the number of colonies compared with before culture was obtained.
Further, 100 CD34+ cells obtained in the culture at […] after the start of culture were seeded each on a MethoCult™ H4415 medium, and a colony assay was performed. […] Then, after Giemsa staining was performed for the specimens, the types of colonies were determined under a microscope.

[3] = test system: Mpl32D cells; assay: Culture with TPO receptor agonists as TPO replacements, with albumin or PVA; type: cell-based, human; conditions: 0.1 μM butyzamide, 3 μg/mL eltrombopag, 3 μM avatrombopag
Method: Subsequently, whether or not TPO can be replaced with a TPO receptor agonist in culture of human hematopoietic stem cells was examined. Butyzamide, eltrombopag, and avatrombopag are known as TPO receptor agonists. Human hematopoietic stem cells were cultured in the presence of 0.1% recombinant human serum albumin (Albumin Biosciences) or in the presence of PVA in the above-mentioned culture medium having a composition from which TPO was removed and to which 0.1 μM butyzamide, 3 μg/mL eltrombopag, or 3 μM avatrombopag was added. In this experiment, Mpl32D cells were used as human hematopoietic stem cells.

[4] = test system: human hematopoietic stem cells (CD34+CD38− cells); assay: Proliferation of human hematopoietic stem cells in albumin-free serum-free PVA medium; type: cell-based; conditions: no albumin
Method: In this example, an assay was performed in which mouse hematopoietic stem cells (KSL cells) and human hematopoietic stem cells (CD34^+CD38^− cells) were allowed to proliferate in a culture medium not comprising albumin. The culture medium was a serum-free medium comprising polyvinyl alcohol (PVA) and not comprising albumin, as described in Wilkinson et al., Nature, 571:117-121, 2019.
Specifically, the culture medium used for culture of mouse hematopoietic stem cells was an F12 medium comprising 1% insulin-transferrin-selenium-ethanolamine (ITSX), 10 mM HEPES, 1% penicillin-streptomycin-glutamine, 100 ng/mL mouse thrombopoietin (mTPO), and 10 ng/mL mouse stem cell factor (mSCF). The medium comprised PVA at the final concentration of 0.1%. The culture medium used for culture of human hematopoietic stem cells was an IMDM medium comprising 1% insulin-transferrin-selenium-ethanolamine (ITSX), 25 mM HEPES, 1% penicillin-streptomycin-glutamine, 100 ng/mL human thrombopoietin (hTPO), and 10 ng/mL human stem cell factor (hSCF). The medium comprised PVA at the final concentration of 0.1%.
Unless otherwise specified, all media used in the following examples were an IMDM medium comprising 1% insulin-transferrin-selenium-ethanolamine (ITSX), 25 mM HEPES, 1% penicillin-streptomycin-glutamine, and PVA (hereinafter, also referred to as “common medium”). Therefore, hereinafter, description of the medium will be focused on components added to the common medium. For example, given that the above-mentioned medium comprises TPO and SCF in addition to the common medium, it is to be referred to as a TPO+SCF medium for the purpose of convenience. […]
Accordingly, human hematopoietic stem cells were cultured in a culture medium comprising 0.3 μM AKTa (name of distributer, Sigma-Aldrich; product number 123871) or 20 μM PI3Ka. Cells were counted after 3 days, 5 days, and 7 days of culture, and the ratios of the number of cells at each time point to the number of cells on the first day of culture, which was standardized as 1, were obtained. […]

[5] = 0.1% recombinant human serum albumin, no TPO
[6] = day 7, 20 μM PI3Ka + TPO 100 ng/mL

CCCOC(c1cccc(-c2csc(NC(=O)c3cc(Cl)c(C=C(C)C(=O)O)c(Cl)c3)n2)c1OC)C(C)(C)C (centres unmarked) [butyzamide, 3-[4-[[[4-[2-methoxy-3-(1-tert-butyl-2-oxapentan-1-yl)phenyl]thiazol-2-yl]amino]carbonyl]-2,6-dichlorophenyl]-2-methylpropenoic acid]
ratio of number of cells at day 7 relative to first day of culture ([1]; PVA, no albumin): significantly proliferated
proliferation rate of total cells and CD34+ cells compared with start of culture ([1]; day 7, 20 μM PI3Ka + 0.1 μM butyzamide versus 20 μM PI3Ka + TPO 100, PVA, no albumin, no SCF): could completely replace TPO
proliferation rate of total cells and CD34+ cells relative to start of culture ([1]; day 7, PVA, no albumin): increases of cells were not observed
GEmM colony forming ability (number of GEmM colonies per 50 CD34+ cells) [2]: could completely replace TPO
proliferation (change with time in number of cells) [3, 5]: could support proliferation
proliferation (change with time in number of cells) ([3]; PVA, no albumin): marked proliferative effect

CC(C)n1cnc2c(NCCc3ccc(O)cc3)nc(-c3csc4ccccc34)nc21 [SR-1]
proliferation rate of total cells relative to before start of culture ([1]; day 14, added to 20 μM PI3Ka + 0.1 μM TPOago, SR-1 500 nM, UM171 35 nM): killed cells

PI3Ka: peptide of amino acid sequence RQIKIWFQNRRMKWKKSDGGYMDMS in which Y is phosphorylated; Tocris product number 1983 (RQIKIWFQNRRMKWKKSDGG[pY]MDMS)
ratio of number of cells to first day of culture ([4]; 3, 5, 7 days, SCF 10 ng/mL + TPO 100 ng/mL, 0.3 μM AKTa or 20 μM PI3Ka): clearly proliferated
number of CD34+ cells, with SCF versus without SCF [4, 6]: no significant difference
number of total cells, with SCF versus without SCF [4, 6]: no significant difference
proliferation rate of total cells and CD34+ cells relative to start of culture ([1]; day 7, PVA, no albumin): increases of cells were not observed

O=C(Nc1nc(-c2cc(Cl)cs2)c(N2CCN(C3CCCCC3)CC2)s1)c1cnc(N2CCC(C(=O)O)CC2)c(Cl)c1 [avatrombopag]
ratio of number of cells at day 7 relative to first day of culture ([1]; PVA, no albumin): Death of hematopoietic stem cells occurred
proliferation (change with time in number of cells) [3, 5]: could support proliferation
proliferation (change with time in number of cells) ([3]; PVA, no albumin): low effect
